Experimental findings from PubChem BioAssay (NCI) are described below.

Each structure is given as a SMILES string. Where “and” joins values, the source holds several entries; their conditions need not be identical. Equal entries are not always repeated.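 Cells were grown in 96-well plates and exposed to each compound for 48 hours at five concentrations; endpoints were interpolated linearly between bracketing concentrations, or set to the highest concentration if not reached. GI50 = concentration required for 50% inhibition of growth. TGI denotes the concentration required for complete inhibition of growth.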

Holding throughout (experiment): inhibition of tumour cell growth, NCI panel, 48 h
Assay [1] has as its system A549 NSCLC.
Assay [2] has as its system ACHN renal.
Assay [3] deals with COLO 205 colon.
The subject of assay [4] is DMS 273 small cell lung.
Assay [5] concerns HCT-116 colon.
The test system of assay [6] is LOX IMVI melanoma.
In assay [7] the test system is LXFL 529 NSCLC.
The test system of assay [8] is NCI-H460 lung.
The subject of assay [9] is OVCAR-8 ovarian.
Assay [10] has as its system RXF 393 renal.

On to `CC1CCC(NC(=O)N(CCCl)N=O)CC1` (configuration not stated), for which the GI50 in [1] was 23.6 µM; in [2], 31.6 µM; in assay [3], 23.1 µM; in assay [4], 26.6 µM; in assay [5], 30.2 µM; in assay [6], 14.7 µM. The GI50 in assay [8] was 28 µM; in assay [9] it was 20 µM; in [10], 16.7 µM. For the same molecule, the TGI in assay [1] is 56.5 µM and 149 µM; in assay [2] it was 91.7 µM and 103 µM; in assay [3], 43.3 µM and 60.2 µM; in assay [4], 82.3 µM and 74 µM; in [5], 90.4 µM and 85.6 µM; in [6], 39.8 µM and 52.6 µM. The TGI in [7] is 28.7 µM; in assay [8], 100 µM; in assay [9], 47.3 µM and 120 µM; in [10], 33.5 µM and 72.9 µM.
On to `CN(C)CC/C(=N\Nc1ccc([N+](=O)[O-])cc1)c1ccccc1`, for which the TGI is 26.8 µM in [1]; 6.81 µM in assay [2]; 28.5 µM in assay [3]; 22.3 µM in [4]; 24 µM in [5]; 18.1 µM in [6]. Also, the TGI in assay [7] stood at 19.3 µM; in [8], 21.3 µM; in [9], 27.1 µM; in assay [10], 17.1 µM.
In the case of `COc1c(C)c2c(c(O)c1C/C=C(\C)CCC(=O)O)C(=O)OC2`, the GI50 is 0.239 µM in assay [1]; 0.457 µM in [2]; 0.416 µM in assay [3]; 0.145 µM in assay [5]; 0.132 µM in assay [6]; 0.116 µM in [8]. Besides, the GI50 was 0.443 µM in assay [9] and 0.604 µM in assay [10]. For the same molecule, the TGI in assay [1], in assay [2], in assay [3], in [4], in assay [5] and in assay [6] was greater than 100 µM each time. Also, the TGI in assay [7], in assay [8], in assay [9] and in assay [10] was greater than 100 µM each time.
In the case of `OC(c1ccccc1)(c1ccccc1)c1ccncc1`, the TGI in assay [1], in [2], in [3], in [4], in [5] and in assay [6] was greater than 100 µM each time. The TGI in assay [7], in [8], in [9] and in assay [10] was greater than 100 µM throughout.
Turning to `COc1cc(OC(=O)c2ccccc2)cc2c1C(=O)C=CC2=O`, the TGI in assay [1] came to 68.4 µM; in [2], 26.4 µM; in [3], 33.7 µM; in assay [4], 40.5 µM; in assay [5], 13.5 µM; in [6] it was 36.3 µM. For the same molecule, the TGI was found to be 25.5 µM in assay [7], 60.9 µM in [8], 63.3 µM in assay [9] and 24.6 µM in assay [10].
For `COC1CC(OS(=O)(=O)c2ccc([N+](=O)[O-])cc2)C(OC(=O)c2ccccc2)C(C)O1` (configuration not stated), the TGI in assay [1], in [2], in assay [3], in assay [4], in assay [5] and in assay [6] was greater than 100 µM each time. Also, the TGI in assay [7], in assay [8], in assay [9] and in assay [10] was greater than 100 µM throughout.
In the case of `c1ccc2c(c1)cc(C1NCCc3[nH]cnc31)c1ccccc12` (configuration not stated), the TGI is greater than 100 µM in assay [1]; greater than 61.9 µM in assay [2]; 26.4 µM in assay [3]; 87.9 µM in assay [4]; 42.7 µM in assay [5]; 40.7 µM in [6]. The TGI in [7] is greater than 63.5 µM; in assay [8] it was greater than 53.6 µM; in assay [9], greater than 100 µM; in [10], 85.6 µM.
With `Oc1ccccc1/C=C/c1csnn1`, the TGI in [1] was greater than 100 µM; in assay [2] it was greater than 100 µM; in assay [3], greater than 100 µM; in assay [4] it was greater than 100 µM; in assay [5], greater than 100 µM; in assay [6], 99.1 µM. In addition, the TGI in [7], in assay [8], in [9] and in assay [10] was greater than 100 µM each time.
For the molecule `COc1cc(/C=C2/C(=O)N(C(=O)OCC(C)C)C(Cc3cc(OC)c(OC)c(C)c3OC)C(=O)N2Cc2ccccc2)c(OC)c(C)c1OC` (configuration not stated), the TGI in [1], in assay [2], in [3], in assay [4], in assay [5] and in assay [6] was greater than 100 µM throughout. For the same molecule, the TGI in assay [7], in [8], in assay [9] and in assay [10] was greater than 100 µM in each case.
`CP1(=O)CCCCC1`: the TGI in assay [1], in [2], in [3], in [4], in assay [5] and in assay [6] was greater than 100 µM in each case. Moreover, the TGI in [7], in [8], in [9] and in [10] was greater than 100 µM in each case.
Consider `Cc1ccc(S(=O)(=O)OC2CSS(=O)CC2OS(=O)(=O)c2ccc(C)cc2)cc1` (configuration not stated), for which the TGI in [1] is 37.9 µM; in assay [2] it was 31.3 µM; in assay [3] it was 24.1 µM; in [4], 35.3 µM; in assay [5] it was 27.1 µM; in assay [6] it was 26.1 µM. Further, the TGI in assay [7] was found to be 27.7 µM; in assay [8], 46.4 µM; in [9], 22.5 µM; in assay [10] it was 20.8 µM.
Consider `Nc1ccnc(=O)[nH]1`, for which the TGI in assay [1], in assay [2], in [3], in assay [4], in assay [5] and in assay [6] was greater than 100 µM throughout. For the same molecule, the TGI in assay [7], in assay [8], in [9] and in assay [10] was greater than 100 µM in each case.
